From ChEMBL document CHEMBL3259683, “Carbonic anhydrase inhibitors. Inhibition of human cytosolic isoforms I and II with (reduced) Schiff's bases incorporating sulfonamide, carboxylate and carboxymethyl moieties” (Bioorg Med Chem, 2014) come the findings set out here.

One series concerns the target Carbonic anhydrase 1 (Homo sapiens, UniProt P00915). Nature of the series: Inhibition of human carbonic anhydrase 1-catalyzed CO2 hydration preincubated for 10 mins by stopped-flow assay.
Series [1] in a line: Solubility of the compound in water. Format: physicochemical. Particulars: buffer.
A further series deals with Carbonic anhydrase 2 (Homo sapiens, UniProt P00918). Nature of the series: Inhibition of human carbonic anhydrase 2-catalyzed CO2 hydration preincubated for 10 mins by stopped-flow assay.
A further series is filed under the species Homo sapiens. Kind of series: Selectivity ratio of Ki for human carbonic anhydrase 2 to Ki for human carbonic anhydrase 1.

Molecules are shown by their SMILES.

Carbonic anhydrase 1, sequence (P00915 whole entry): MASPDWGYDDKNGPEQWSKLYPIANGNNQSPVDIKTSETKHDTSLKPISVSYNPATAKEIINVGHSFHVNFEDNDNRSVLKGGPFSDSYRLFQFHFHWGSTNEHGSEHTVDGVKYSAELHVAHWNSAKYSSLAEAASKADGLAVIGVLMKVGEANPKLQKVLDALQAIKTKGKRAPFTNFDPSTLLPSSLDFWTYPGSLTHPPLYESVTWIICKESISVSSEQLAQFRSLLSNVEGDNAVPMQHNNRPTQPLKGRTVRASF

Usually Ki stands for a dissociation constant, usually derived from enzyme kinetics or from competition with a known ligand. High values mean lower affinity, low ones higher affinity. `COc1ccc(O)c(/C=N/Cc2ccc(S(N)(=O)=O)cc2)c1.Cl` returned a Ki at Carbonic anhydrase 1 of 92 nM. Further, in series [1], the solubility entry is reported as “soluble”.
As for `NS(=O)(=O)c1ccc(CC/N=C/c2ccccc2)cc1`, the solubility result in series [1] is “soluble”.
At Carbonic anhydrase 1, `COc1ccc(O)c(CNCc2ccc(S(N)(=O)=O)cc2)c1.Cl` returned a Ki of 51.9 nM. In series [1], the solubility result is “soluble”.
In the same order, the values of `Cl.NS(=O)(=O)c1ccc(CNCc2ccc(O)cc2)cc1` are 59.5 nM and “soluble”.
The corresponding values for `NS(=O)(=O)c1ccc(/N=C/c2ccccc2)cc1` are 311 nM and “soluble”.
Turning to `CC(C)(C)c1ccc(CNCCc2ccc(S(N)(=O)=O)cc2)cc1`, the Ki was determined as 8.6 nM at Carbonic anhydrase 2 and 50.3 nM at Carbonic anhydrase 1. Also, the solubility result in series [1] is given as “soluble”.
With `NS(=O)(=O)c1ccc(CCNCc2ccccc2)cc1`, the solubility result in series [1] was “soluble”.
For the molecule `COC(=O)c1ccc(NCc2ccc(C(C)(C)C)cc2)cc1`, the Ki at Carbonic anhydrase 1 was found to be 251 nM. The solubility entry in series [1] is “soluble”.
In the same order, the values of `COC(=O)c1ccc(/N=C/c2cc(OC)ccc2O)cc1` are 7450 nM and “soluble”.
`COC(=O)c1ccc(/N=C/c2ccccc2)cc1` gave a Ki at Carbonic anhydrase 1 of 8600 nM. The solubility entry in series [1] is listed as “soluble”.
On to `NS(=O)(=O)c1ccc(CCNCc2ccc(O)cc2)cc1`, for which the Ki is 236 nM at Carbonic anhydrase 2 and 92.1 nM on Carbonic anhydrase 1. In addition, in series [1], the solubility result is “soluble”.
As for `COc1ccc(O)c(/C=N/c2ccc(C(=O)O)cc2)c1`, the Ki on Carbonic anhydrase 1 turned out to be 1290 nM. In series [1], the solubility entry was “soluble”.
In the same order, the values of `CC(C)(C)c1ccc(/C=N/c2ccc(S(N)(=O)=O)cc2)cc1` are 85 nM and “soluble”.
In the same order, the values of `COc1ccc(O)c(/C=N/c2ccc(S(N)(=O)=O)cc2)c1` are 52 nM and “soluble”.
In the same order, the values of `O=C(O)c1ccc(NCc2ccc(O)cc2)cc1` are 116 nM and “soluble”.
For `NS(=O)(=O)c1ccc(NCc2ccc(O)cc2)cc1`, the inhibition constant (Ki) on Carbonic anhydrase 2 was found to be 702 nM; at Carbonic anhydrase 1, 29 nM. Further, the solubility result in series [1] is given as “soluble”.
The molecule `O=C(O)c1ccc(/N=C/c2ccccc2)cc1` showed an inhibition constant (Ki) at Carbonic anhydrase 1 of 1230 nM. The solubility result in series [1] is given as “soluble”.
On to `CC(C)(C)c1ccc(/C=N/CCc2ccc(S(N)(=O)=O)cc2)cc1`, for which the Ki at Carbonic anhydrase 2 turned out to be 11.2 nM; on Carbonic anhydrase 1, 665 nM. Also, in series [1], the solubility result is “soluble”.
For `O=C(O)c1ccc(/N=C/c2ccc(O)cc2)cc1`, the solubility entry in series [1] was “soluble”.
In the case of `COC(=O)c1ccc(/N=C/c2ccc(C(C)(C)C)cc2)cc1`, the affinity on Carbonic anhydrase 1, expressed as Ki, was 7460 nM. The solubility result in series [1] is listed as “soluble”.
The corresponding values for `Cl.NS(=O)(=O)c1ccc(CNCc2ccccc2)cc1` are 30.3 nM and “soluble”.
In the same order, the values of `CC(C)(C)c1ccc(/C=N/c2ccc(C(=O)O)cc2)cc1` are 8270 nM and “soluble”.
On to `COc1ccc(O)c(/C=N/CCc2ccc(S(N)(=O)=O)cc2)c1`, for which the Ki at Carbonic anhydrase 2 came out at 12.6 nM; at Carbonic anhydrase 1 it was 70 nM. The solubility result in series [1] is recorded as “soluble”.
In turn, `COC(=O)c1ccc(NCc2ccc(O)cc2)cc1` had an inhibition constant (Ki) at Carbonic anhydrase 1 of 209 nM. Moreover, in series [1], the solubility result was “soluble”.
The corresponding values for `Cl.NS(=O)(=O)c1ccc(C/N=C/c2ccccc2)cc1` are 93 nM and “soluble”.
As to `CC(C)(C)c1ccc(/C=N/Cc2ccc(S(N)(=O)=O)cc2)cc1.Cl`, the inhibition constant Ki on Carbonic anhydrase 1 is 72 nM. In series [1], the solubility entry is on record as “soluble”.
Regarding `NS(=O)(=O)c1ccc(CC/N=C/c2ccc(O)cc2)cc1`, the Ki at Carbonic anhydrase 2 amounted to 43 nM; at Carbonic anhydrase 1, 105 nM. Also, the solubility entry in series [1] is “soluble”.
The molecule `CC(C)(C)c1ccc(CNCc2ccc(S(N)(=O)=O)cc2)cc1.Cl` gave an inhibition constant Ki on Carbonic anhydrase 1 of 25.5 nM. Also, the solubility result in series [1] is listed as “soluble”.
As for `COc1ccc(O)c(CNCCc2ccc(S(N)(=O)=O)cc2)c1`, the inhibitory constant (Ki) on Carbonic anhydrase 2 stood at 51.5 nM; on Carbonic anhydrase 1 it was 56 nM. For the same molecule, the solubility result in series [1] is given as “soluble”.
Regarding `COc1ccc(O)c(CNc2ccc(C(=O)O)cc2)c1`, the affinity on Carbonic anhydrase 1, expressed as Ki, was 189 nM. In series [1], the solubility entry is “soluble”.
In the case of `COC(=O)c1ccc(NCc2ccccc2)cc1`, at Carbonic anhydrase 1, the Ki is 200 nM. The Ratio Ki in the series listed under Homo sapiens was determined as 111. The solubility result in series [1] is on record as “soluble”.
As to `COC(=O)c1ccc(NCc2cc(OC)ccc2O)cc1`, on Carbonic anhydrase 1, affinity was put at a Ki of 228 nM. For the same molecule, the Ratio Ki in the series filed under Homo sapiens worked out at 23. In series [1], the solubility result is “soluble”.
Molecule `COc1ccc(O)c(CNc2ccc(S(N)(=O)=O)cc2)c1` had an inhibitory constant (Ki) on Carbonic anhydrase 1 of 23.5 nM. The solubility entry in series [1] is on record as “soluble”.
The molecule `O=C(O)c1ccc(NCc2ccccc2)cc1` showed a Ki at Carbonic anhydrase 1 of 56.7 nM. For the same molecule, the solubility result in series [1] is “soluble”.
In the same order, the values of `CC(C)(C)c1ccc(CNc2ccc(C(=O)O)cc2)cc1` are 266 nM and “soluble”.
On to `NS(=O)(=O)c1ccc(/N=C/c2ccc(O)cc2)cc1`, for which the Ki was 11.1 nM on Carbonic anhydrase 2 and 80 nM on Carbonic anhydrase 1. Also, the solubility result in series [1] was “soluble”.
In turn, `COC(=O)c1ccc(/N=C/c2ccc(O)cc2)cc1` displayed a Ki on Carbonic anhydrase 1 of 1040 nM. Besides, in series [1], the solubility entry was “soluble”.
The corresponding values for `CC(C)(C)c1ccc(CNc2ccc(S(N)(=O)=O)cc2)cc1` are 18.7 nM and “soluble”.
